Reference: patent US20240009272A1, “METHODS, SYSTEMS, AND COMPOSITIONS FOR LEGUME-BASED PRODUCTION OF THERAPEUTIC PROTEINS AND THERAPEUTIC MEDICAL MATERIALS” (Arizona Board of Regents on Behalf of The University of …, priority 2017, published 2024)

Test: Stability of rhEGF in soymilk, read out by bioactivity on Hela cell EGFR
Type: physicochemical
Conditions: in soymilk over 24 hours; Hela cell EGFR abundance
Method: Hela cells (obtained from American Tissue Culture Collection) were cultured in Minimum Essential Media (MEM) complemented with 10% Fetal Bovine Serum (FBS), 100 units/ml penicillin, and 100 μg/ml streptomycin. For the western blotting assay, cells grown in a 6-well plate were kept in serum-free MEM media for 24 hours. Cells were then either kept in a serum-free medium (control) or stimulated with soy milk alone, soy EGF, or commercial recombinant human EGF for different time periods as indicated. Cells were lysed by directly adding 1×SDS sample buffer (50 mM Tris-HCl, pH 6.8, 10% glycerol, 2% SDS, and 5% β-ME) to the cells after washing 3 times with 1×PBS. EGF bio-activity was determined via EGFR phosphorylation and downstream AKT phosphorylation. Total EGFR was also measured since EGFR is known to undergo internalization when stimulated with EGF. Antibodies used in western blot are anti-p-EGFR (Tyr1068) (#2234, Cell Signaling Technology), anti-total EGFR (#06-847, Millipore), anti-p-AKT (#4060, Cell Signaling Technology) and anti-Lamin B1 (#13435, Cell Signaling Technology). […] EGFR was labeled using an anti-EGFR antibody (#4267, Cell Signaling Technology) and detected with Alexa Fluor 594 Goat anti-rabbit IgG (#A11012, Life Technologies). […]

rhEGF: commercial recombinant human EGF (Gibco, Life Technologies), used as positive control
bioactivity of rhEGF kept in soymilk versus control rhEGF: same bioactivity as control recombinant rhEGF
